Tests used:
ROC1/CUL1 = target: T1, ROC1/CUL1 (Homo sapiens, UniProt P62877+Q13616); experiment: ROC1/CUL1 ubiquitin ligase assay (SCF assay); format: biochemical
T1 construct: made in house
Protocol: Inhibition of ubiquitin ligase activity of E1+E2+E3 was measured using the protocol as described in WO 01/75145 with E3 as the ROC1/CUL1, ROC1/CUL2, or ROC2/CUL5 complex.
The wells of nickel-substrate 96-well plates (Pierce Chemical) are blocked with 100 μl of 1 casein/phosphate buffered saline (PBS) for 1 hour at room temperature, then washed with 200 μl of PBST (0.1% Tween-20 in PBS) 3 times. To each well is added the following Flag-ubiquitin (see above) reaction solution: 62.5 mM Tris pH 7.5, 6.25 mm MgCl2, 0.75 mM DTT, 2.5 mM ATP, 2.5 mM NaF1, 2.5 nM Okadaic acid, 100 ng Flag-ubiquitin (made as described above).
The buffer solution is brought to a final volume of 80 μl with Milipore-filtered water, followed by the addition of 10 μl DMSO.
To the above solution is then added 10 μl of ubiquitination enzymes in 20 mM Tris buffer, pH 7.5, and 5% glycerol. E2-Ubch5c and E3-His ROC1/Cul1, ROC1/CUL2, and ROC2/CUL5 are made as described in WO 01/75145. E1 is obtained commercially (Affiniti Research Products, Exeter, U. K.). The following amounts of each enzyme are used for these assays: 5 ng/well of E1; […] E2; and 100 ng/well His-E3. Varying amounts of compounds according to the invention are added and the reaction allowed to proceed at room temperature for 1 hour.
Following the ubiquitination reaction, the wells are washed with 200 μl of PBST 3 times. For measurement of the enzyme-bound ubiquitin, 100 gel of Mouse anti-Flag (1:10,000) and anti-Mouse Ig-HRP (1:15, 000) in PBST are added to each well and allowed to incubate at room temperature for 1 hour. The wells are then washed with 200 μl of PBST 3 times, followed by the addition of 100 μl of luminol substrate (1/5 dilution). Luminescence for each well is then measured using a fluorimeter.
Table 2 below illustrates the inhibitory activity of the compounds of the invention determined by the TRAF6/Uev1A/Ubc13 assay as well as in the ICAM, APC and the ROC1/CUL1 Ubiquitin Ligase Assay (SCF Assay). The IC50 values were determined using a various concentrations of the compounds.

COLO 205 cells = experiment: Cell proliferation PAD assay, COLO 205; format: cell-based; conditions: Homo sapiens, Colo205 cells, 9pt, 48 hours
Text: (§1) Table 3 illustrates the inhibitory activity of the compounds of the invention determined by the PAD assay described above in a number of cell types. Apoptosis was not
(§2) Cell lines used are available from American Type Culture Collection (ATCC), for example, cell cultures containing A549 (ATCC# CCL-185), HeLa (ATCC# CCL-2), HCT116 ATTC# CCL-247), and H1299 (ATCC# CRL-5803) cells were maintained in T175 flasks following the ATCC recommended media and handling procedures. […] A 20,000 cells/ml solution was made for plating. Cells were plated in black Packard 96 well plates by placing 100 μl per well (2,000 cells per well). […]
(§3) Cells to be analyzed by photography were fixed and stained. […]

MIA PaCa-2 cells = experiment: Cell proliferation PAD assay, MIA PaCa-2; format: cell-based; conditions: Homo sapiens, Miapaca2 cells, 9pt, 48 hours
Text: as §1, §2, §3

T1 sequence (P62877 whole entry): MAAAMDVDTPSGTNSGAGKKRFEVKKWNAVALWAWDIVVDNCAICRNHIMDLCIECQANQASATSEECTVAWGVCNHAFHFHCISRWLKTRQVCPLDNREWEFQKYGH
T1 sequence (Q13616 whole entry): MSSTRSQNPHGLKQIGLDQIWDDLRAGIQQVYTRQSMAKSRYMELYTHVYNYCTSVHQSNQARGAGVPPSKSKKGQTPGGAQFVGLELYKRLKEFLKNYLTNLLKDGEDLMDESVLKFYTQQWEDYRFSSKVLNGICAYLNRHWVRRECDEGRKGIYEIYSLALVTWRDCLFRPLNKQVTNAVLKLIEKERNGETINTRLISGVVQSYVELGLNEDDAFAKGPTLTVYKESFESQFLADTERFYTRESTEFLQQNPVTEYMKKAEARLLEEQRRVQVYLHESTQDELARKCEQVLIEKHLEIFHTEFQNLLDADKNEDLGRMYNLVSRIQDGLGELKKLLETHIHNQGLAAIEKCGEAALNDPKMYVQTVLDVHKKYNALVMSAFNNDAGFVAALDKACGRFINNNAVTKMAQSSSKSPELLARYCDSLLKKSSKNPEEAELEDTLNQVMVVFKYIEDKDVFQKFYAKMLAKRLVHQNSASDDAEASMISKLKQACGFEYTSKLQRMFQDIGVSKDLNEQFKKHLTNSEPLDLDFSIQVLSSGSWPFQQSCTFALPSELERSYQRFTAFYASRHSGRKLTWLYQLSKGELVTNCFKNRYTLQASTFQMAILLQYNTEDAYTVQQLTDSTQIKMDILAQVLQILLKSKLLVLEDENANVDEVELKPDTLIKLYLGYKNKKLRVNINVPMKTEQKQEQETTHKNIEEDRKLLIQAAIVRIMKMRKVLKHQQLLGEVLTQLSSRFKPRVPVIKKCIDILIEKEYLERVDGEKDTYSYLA

SMILES | IC50 (ROC1/CUL1) [µM] | IC50 (COLO 205 cells) [µM] | IC50 (MIA PaCa-2 cells) [µM]
CC1CC(C)CN(S(=O)(=O)c2ccc(Cl)c3nonc23)C1 (centres unmarked) [compound 192, 4-chloro-7-[(3,5-dimethylpiperidin-1-yl)sulfonyl]-2,1,3-benzoxadiazole] | ≥ 20 | – | –
N#CC1(c2ccccc2)CCN(S(=O)(=O)c2ccc(O)c3nonc23)CC1 [compound 199, 1-[(7-hydroxy-2,1,3-benzoxadiazol-4-yl)sulfonyl]-4-phenylpiperidine-4-carbonitrile] | ≥ 20 | – | –
N#Cc1ccc(N2CCN(S(=O)(=O)c3c(Cl)ccc4nonc34)CC2)nc1 [compound 209, 6-{4-[(5-chloro-2,1,3-benzoxadiazol-4-yl)sulfonyl]piperazin-1-yl}nicotinonitrile] | ≥ 20 | – | –
CC(=O)N1CCN(S(=O)(=O)c2c(Sc3cccc4cccnc34)ccc3nonc23)CC1 [compound 214, 8-({4-[(4-acetylpiperazin-1-yl)sulfonyl]-2,1,3-benzoxadiazol-5-yl}thio)quinoline] | ≥ 20 | – | –
O=S(=O)(c1ccc(Sc2ccc(O)cc2)c2nonc12)N1CCC(Oc2ncccn2)CC1 [compound 226, 4-[(7-{[4-(pyrimidin-2-yloxy)piperidin-1-yl]sulfonyl}-2,1,3-benzaxadiazol-4-yl)thio]phenol] | ≥ 20 | – | –
CC1(C)CCN(S(=O)(=O)c2c(Cl)ccc3nonc23)CC1 [compound 245, 5-chloro-4-[(4,4-dimethylpiperidin-1-yl)sulfonyl]-2,1,3-benzoxadiazole] | ≥ 20 | < 1 | < 1
O=S(=O)(Nc1ccc(F)c(F)c1)c1ccc(Cl)c2nonc12 [compound 262, 7-chloro-N-(3,4-difluorophenyl)-2,1,3-benzoxadiazole-4-sulfonamide] | ≥ 20 | – | –
O=S(=O)(Nc1cccc(F)c1)c1ccc(Cl)c2nonc12 [compound 263, 7-chloro-N-(3-fluorophenyl)-2,1,3-benzoxadiazole-4-sulfonamide] | ≥ 20 | – | –
Cc1cc(C)cc(-c2cccc3nonc23)c1 [compound 285, 4-(3,5-Dimethylphenyl)-2,1,3-benzoxadiazole] | ≥ 20 | – | –
